Data reported in patent US20220317115A1, “3D ORGANOIDS FOR PERSONALIZED ORAL CANCER THERAPY” (THE TRUSTEES OF COLUMBIA UNIVERSITY IN THE CITY OF NEW YOURK, priority 2019, published 2022).
Entries after “also recorded” stand apart in the source; their conditions may differ. Read-outs that look alike come from different tables or passages of the source.

What was measured:
[1] = system: esophageal 3D organoids; experiment: Modeling reactive epithelium in esophageal organoids with IL-13; type: cell-based, human; conditions: IL-13 stimulation (10 ng/ml in protocol), compared to untreated organoids
Source text: Reactive changes in esophageal epithelium are induced by multiple soluble factors secreted by immune cells and fibroblasts. The function of these factors in disease development can be modeled and evaluated in esophageal organoids. Here we provide an example of such an experiment by treating normal esophageal organoids with interleukin 13 (IL-13) to model reactive changes induced in esophageal epithelium by eosinophils; however, any bioactive compounds (cytokines, antibodies, small molecule inhibitors) can be utilized to model pathologic conditions and/or treatment strategies. Representative images of esophageal organoids treated with IL-13, as well as gene expression profiles of select EoE-relevant genes (Blanchard et al., 2007; Kasagi et al., 2019), can be found in FIGS. 35A-35B.
Additional Materials (see also Basic Protocol 1) • Interleukin 13 (IL-13; R&D Systems, cat. no. 213-ILB-005) • Reconstituted IL-13 (reconstitute lyophilized IL-13 to 100 μg/ml in PBS, aliquot, and store at −80° C.; avoid repeated freeze-thaw cycles) • Growing culture of esophageal organoids (see Basic Protocol 1) • 1. Remove spent medium. • 2. Dispense 500 μl KSFMC containing 10 ng/ml IL-13. • 3. Observe organoid growth under a phase-contrast microscope. • 4. Harvest organoids for histology and RNA isolation, as described in Basic Protocol 3. • 5. Evaluate changes in morphology and gene expression.

[2] = system: 4NQO-induced tumor organoids (Aldh2*2 vs Aldh2*1); experiment: CellTiter-Glo 3D cell viability assay of 4NQO-induced tumor organoids with Aldh2 SNP genotypes; type: cell-based, mice; conditions: for Response of Aldh2*2 (Aldh2 mutant) tumor organoids to chemotherapy agent compared with Aldh2*1 (wild-type) tumor organoids: treatment for 3 days, cisplatin 80 μM, 5FU data not shown
Protocol: 4NQO-induced tumor organoids with indicated Aldh2 SNP genotypes were analyzed by H&E staining for cellular abnormality in FIG. 5A and by […] CellTiter-Glo® 3D cell viability assays, following treatment for 3 days with cisplatin (80 μM) along with or without 10 μM Alda-1, an Aldh2 activator in FIG. 5B. *, p<0.01 vs. Aldh21; ns, not significant (n=6).
Aldh2*2 is a common single nucleotide polymorphism (SNP) strongly associated with OSCC. To evaluate the role of Aldh2*2 in 4NQO-induced neoplastic cells in 3D organoids, Aldh2*2 mice expressing mutant Aldh2 protein (Aldh2^E487K) were compared with wild-type Aldh2*1 (control) mice. 3D organoids were analyzed from tumors detected in mice sacrificed at 26 weeks from the start of 4NQO treatment. […] Thus, individuals with Aldh2*2 SNP may respond to chemotherapy better despite its strong association with a risk of OSCC tumor development. It was hypothesized that pharmacological Aldh2 inhibition by Disulfiram (Antabuse, used a treatment of chronic alcoholism) augments the chemotherapy effects in OSCC in individuals with Aldh2*1. Thus, patient-derived 3D organoids may serve as a platform for new translational applications in personalized medicine for therapy of OSCC and potentially other squamous cell carcinomas.
Oral 3D organoids (FIG. 6): 3D organoids will be generated according to the published protocols (Kasagi et al. 2018; Natsuizaka et al. 2017; Whelan et al. 2017). In 24-well plates, 2,000 cells are seeded in Matrigel (50 μl/well). Organoids grow within 7-10 days to form 50-100 μm spherical structures (100% success, n=34 for human normal biopsies) (Kasagi et al. 2018). For quality control purposes, an OSCC cell line will be used (Kijima et al. 2019). Time-lapse analysis of growing organoids will be done under light microscopy to determine their average size and morphology. organoid formation rate (OFR; the percentage of the number of organoids formed at day 10 per total number of cells seeded at day 0) will be determined. Organoids will then be processed for DNA, RNA and flow cytometry, and histology. […]

[3] = system: EAC PDO; experiment: IC50 from drug-treated EAC PDO, mean organoid size by Celigo Imaging Cytometer; type: cell-based, human; conditions: 72 h-exposure, R squares 0.5874 (Cisplatin) and 0.8652 (Paclitaxel), read-out: IC50 (organoid size normalized by vehicle-treated control as 100%)
Protocol: EAC PDO size were evaluated by Celigo Imaging Cytometer measuring the mean organoid size following 72 h-exposure to Cisplatin and Paclitaxel at indicated final concentrations. Organoid size was normalized by vehicle-treated control as 100%.
To evaluate organoid growth, 3D organoid structures were monitored during culture, and their size is documented by a conventional phase-contrast inverted microscope or highthroughput cell imaging instruments (e.g., Celigo Image Cytometer, Nexcelom Bioscience) with the capacity of automated multi-well rapid imaging and quantitative analysis of organoid size, number and structure.
• 1. Grow organoids in 24-well or 96-well plates (Basic Protocols 1 and 2). Use at least three (3) wells per condition as biological replicates. • 2. Acquire phase-contrast images (FIGS. 37A-37B) manually via a conventional microscopy with a camera. Use ImageJ software to measure the diameter of at least 5 organoids per well. Alternatively, Celigo imaging cytometer can not only acquire phase-contrast images but calculate mean organoid area for all organoids imaged. Such assays can be performed in conjunction with drug treatment (FIG. 38) (Basic Protocol 6). • 3. Repeat step 2 every other day. • 4. Generate growth curves by plotting organoid diameter or area at each time point.
• 1. Remove the spent culture medium by aspiration. • 2. […]

**Q.** “IL-13: eosinophilic esophagitis (EoE)-relevant cytokine, recombinant (R&D Systems)” was tested. Which “Reactive epithelial change (basal cell hyperplasia) in organoids” value [1] did it give?
**A.** The value was “induces BCH-like changes; also recorded: Basal cell hyperplasia is evident”.

**Q.** `O=c1[nH]cc(F)c(=O)[nH]1` [5FU, 5-Fluorouracil] was tested. Which “Response of Aldh2*2 (Aldh2 mutant) tumor organoids to chemotherapy agent compared with Aldh2*1 (wild-type) tumor organoids” value [2] did it give?
**A.** The value was “better than Aldh2*1”.

**Q.** How did the “Response of Aldh2*2 (Aldh2 mutant) tumor organoids to chemotherapy agent compared with Aldh2*1 (wild-type) tumor organoids” value [2] turn out when `N.N.[Cl][Pt][Cl]` [Cisplatin] was run?
**A.** Its value is “better than Aldh2*1”.

**Q.** What about the IC50 [3] of the same compound?
**A.** Its IC50 is 7.1 µM.

**Q.** For `O=C(NCc1ccc2c(c1)OCO2)c1c(Cl)cccc1Cl` [Alda1], which “Effect on cisplatin-mediated cytotoxicity in Aldh2*2 tumor 3D organoids” value ([2]; 10 μM Alda-1 with cisplatin 80 μM, 3 days) is on record?
**A.** The value was “cisplatin-mediated cytotoxicity was reversed”.

**Q.** Which IC50 ([3]; Homo sapiens) does the source give for `CC(=O)O[C@H]1C(=O)[C@@]2(C)[C@H]([C@H](OC(=O)c3ccccc3)[C@]3(O)C[C@H](OC(=O)[C@H](O)[C@@H](NC(=O)c4ccccc4)c4ccccc4)C(C)=C1C3(C)C)[C@]1(OC(C)=O)CO[C@@H]1C[C@@H]2O` [Paclitaxel] here?
**A.** The IC50 was 2.3 µM.
